Data from patent US5145955A, “Process for the preparation and composition of a fraction containing picroside I and kutkoside” (Council of Scientific & Industrial Research, priority 1991, dated 1992).
Like-named read-outs stand apart in the source and are kept apart here.

Experiments:
cholestasis = experiment: Anticholestatic effect against induced cholestasis; assay type: in vivo; settings: paracetamol induced; 0.5 and 1 mg/kg po × 7
[1] = test system: bile flow (choleretic effect); experiment: Choleretic effect of cucurbitacin glucoside and F006 (bile volume and bile contents); assay type: in vivo
[2] = test system: liver and serum biochemical parameters; experiment: Protection against altered liver and serum biochemical parameters (toxicant not given); assay type: in vivo
isolated rat hepatocytes = assay type: cell-based; settings: paracetamol-toxicated
Method: In the isolated hepatocyte preparation the, hepatoprotective activity was assessed against paracetamol, galactosamine carbon tetrachloride and thioacetamide induced damage.
The effect of cucurbitacin glucoside and F006 was also studied on paracetamol-toxicated isolated rat hepatocytes (ex vivo). At the doses of 0.5 and 1 mg/kg po×7.

[3] = test system: thioacetamide induced hepatic damage (liver); experiment: Protection against thioacetamide induced biochemical changes in liver in rat; assay type: in vivo
Method: Although cucurbitacin glucoside (III) was a known compound, its biological activity is reported here for the first time. […] At higher dose (1 mg/kg) also, it reversed the decrease in levels of DNA (56%), RNA (100%) and glycogen (36%).

[4] = test system: Plasmodium berghei infection in mastomys; experiment: Hepatoprotective activity against Plasmodium berghei infection-induced hepatic damage; assay type: in vivo; settings: 1 mg/kg po × 15 days
[5] = dose not given, range given for both agents

CC(=O)OC(C)(C)C=CC(=O)C(C)(O)C1C(O)CC2(C)C3CC=C4C(CC(O[C@@H]5O[C@H](CO)[C@@H](O)[C@H](O)[C@H]5O)C(O)C4(C)C)C3(C)CCC12C (stereo partly drawn) [Cucurbitacin glucoside, 25-acetoxy-2β-D-glucopyranoxy-3,16,20-trihydroxy-9-methyl-19-norlanosta-5,23-diene-22-one]
reversal of decrease in bile acids (cholestasis): completely reversed
reversal of decrease in bile flow (cholestasis): completely reversed
reversal of decrease in bile salts (cholestasis): completely reversed
increase in bile salts ([1]; 0.5 mg/kg): 40%
increase in cholic acid ([1]; 0.5 mg/kg): 38.5%
increase in deoxycholic acid ([1]; 0.5 mg/kg): 47.6%
increase in volume of bile / bile flow ([1]; 0.5 mg/kg): 38%
increase in bile salts ([1]; 1 mg/kg): 100%
increase in cholic acid ([1]; 1 mg/kg): 100%
increase in deoxycholic acid ([1]; 1 mg/kg): 100%
increase in volume of bile / bile flow ([1]; 1 mg/kg): 90%
activity of cytochrome P450 ([2]; 1 mg/kg): significantly restored
activity of γ-glutamyl transpeptidase ([2]; 1 mg/kg): significantly restored
level of DNA ([2]; 1 mg/kg): significant reversal
level of RNA ([2]; 1 mg/kg): significant reversal
level of glycogen ([2]; 1 mg/kg): significant reversal
serum level of GOT ([2]; 1 mg/kg): restored almost completely towards normal
serum level of GPT ([2]; 1 mg/kg): restored almost completely towards normal
level of bilirubin in serum ([2]; dose not given): recovered
level of protein in serum ([2]; dose not given): recovered
protection, level of phospholipids ([2]; dose not given): significant protection
protection, 5'-nucleotidase activity [2, 5]: 46-56%
protection, acid ribonuclease activity [2, 5]: 48-96%
protection, glucose-6-phosphatase activity [2, 5]: 46-61%
protection, level of DNA [2, 5]: 55-78%
protection, level of protein [2, 5]: 96-100%
recovery of increased level of total lipids [2, 5]: 44-55%
protection by Trypan blue exclusion test (cell viability) (isolated rat hepatocytes; 0.5 mg/kg po × 7): 97.4%
rate of oxygen consumption / oxygen uptake test (isolated rat hepatocytes; 0.5 mg/kg po × 7): 100%
protection by Trypan blue exclusion test (cell viability) (isolated rat hepatocytes; 1 mg/kg po × 7): 100%
rate of oxygen consumption / oxygen uptake test (isolated rat hepatocytes; 1 mg/kg po × 7): 100%
toxicant-induced decrease in activity of succinate dehydrogenase ([3]; higher dose (1 mg/kg)): reversed significantly
toxicant-induced increase in activity of acid ribonuclease ([3]; higher dose (1 mg/kg)): reversed significantly
protection against decrease in DNA level in liver ([3]; thioacetamide, 0.48 mg/kg): 94%
protection against decrease in RNA level in liver ([3]; thioacetamide, 0.48 mg/kg): 95%
protection against decrease in glycogen level in liver ([3]; thioacetamide, 0.48 mg/kg): 60%
reversal of decrease in DNA level ([3]; thioacetamide, 1 mg/kg): 56%
reversal of decrease in RNA level ([3]; thioacetamide, 1 mg/kg): 100%
reversal of decrease in glycogen level ([3]; thioacetamide, 1 mg/kg): 36%
protection against hepatic damage (biochemical parameters in serum and liver) [4]: marked protection
